Data taken from US12478595B1, “Organoselenium compound for treating cancer” (IMAM MOHAMMAD IBN SAUD ISLAMIC UNIVERSITY, priority 2024, dated 2025).

Tests used:
Assay type in all cases: cell-based
[1] = test system: normal oral epithelial cell line (OEC); assay: growth inhibition of OEC non-cancer cell line; conditions: read-out: growth inhibition percentage
[2] = test system: A549 (non-small cell lung cancer); assay: growth inhibition of A549 cancer cell line; conditions: Homo sapiens, A549, read-out: growth inhibition percentage
[3] = test system: HCT116 (colorectal carcinoma); assay: growth inhibition of HCT116 cancer cell line; conditions: Homo sapiens, HCT-116, read-out: growth inhibition percentage
[4] = test system: HuH7 (hepatocellular carcinoma); assay: growth inhibition of HuH7 cancer cell line; conditions: Homo sapiens, Huh-7, read-out: growth inhibition percentage
[5] = test system: HN9 (human squamous cell carcinoma of the oral tongue); assay: growth inhibition of HN9 cancer cell line; conditions: read-out: growth inhibition percentage
[6] = test system: HEPG2 (hepatocellular carcinoma); assay: growth inhibition of HEPG2 cancer cell line; conditions: Homo sapiens, HepG2, read-out: growth inhibition percentage
A375 (melanoma cancer) = assay: growth inhibition of A375 cancer cell line; conditions: Homo sapiens, A-375, read-out: growth inhibition percentage

C[Se]c1ccc(NC(=O)NCC2(C)CC(NC(=O)Nc3ccc([Se]C)cc3)CC(C)(C)C2)cc1 (stereo not shown) [HB188, 1-(4-(methylselanyl)phenyl)-3-((1,3,3-trimethyl-5-(3-(4-(methylselanyl)phenyl)ureido)cyclohexyl)methyl)urea]
inhibition at 100 µg/mL [1]: 32.7%
inhibition at 100 µg/mL [2]: 74.4%
inhibition at 100 µg/mL [3]: 85.3%
inhibition at 100 µg/mL [4]: 88.6%
inhibition at 100 µg/mL [5]: 74%
inhibition at 100 µg/mL [6]: 76.2%
inhibition at 100 µg/mL (A375 (melanoma cancer)): 66.8%
